Source: ChEMBL document CHEMBL4266026, “Bisleuconothines B-D, Modified Eburnane-Aspidosperma Bisindole Alkaloids from Leuconotis griffithii” (J Nat Prod, 2018)

These compounds were tested on A549 (assay: Cytotoxicity against human A549 cells assessed as cell growth inhibition by MTT assay).
Assay type: functional, cell-based
`CC[C@@]12CCCN3CC[C@]4(c5c(ccc6c5O[C@@]57[C@@H]8N9CCC[C@]8(CC)C[C@@H]6N5c5ccccc5[C@]7(O)CC9)N(C=O)[C@@H]4CC1)[C@H]32` gave an IC50 of 36.1 µM. In the case of `CC[C@]12C=C(c3ccc(O)c4c3N[C@@H]3CC[C@@]5(CC)CCCN6CC[C@@]43[C@H]65)N3c4ccccc4C(=O)[C@]34CCN(CCC1)[C@H]24`, the IC50 is reported as 33.6 µM. Work on `CC[C@@]12CCCN3CC[C@]4(c5c(O)ccc([C@H]6C[C@@]7(CC)CCCN8CC[C@]9(C(=O)c%10ccccc%10N69)[C@H]87)c5N[C@@H]4CC1)[C@H]32` yielded an IC50 of 20.1 µM.
